The source of these data is EP4810040A2, “INHIBITORS OF APOL1 AND METHODS OF USING SAME” (priority 2020, dated 2022).

The target of the test is T1, APOL1 G1 (Homo sapiens, UniProt O14791, I384M/S342G).
T1 sequence (O14791 28-398 S342G/I384M): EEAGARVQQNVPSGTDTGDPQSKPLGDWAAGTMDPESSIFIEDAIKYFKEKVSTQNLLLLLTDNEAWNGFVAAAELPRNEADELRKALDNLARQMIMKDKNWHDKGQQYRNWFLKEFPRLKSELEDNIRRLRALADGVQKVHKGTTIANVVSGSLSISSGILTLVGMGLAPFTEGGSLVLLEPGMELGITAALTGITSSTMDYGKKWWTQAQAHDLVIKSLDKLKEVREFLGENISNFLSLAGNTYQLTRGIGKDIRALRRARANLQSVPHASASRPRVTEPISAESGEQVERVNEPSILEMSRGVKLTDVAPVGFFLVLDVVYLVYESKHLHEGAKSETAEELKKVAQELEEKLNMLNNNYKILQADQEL
Nature of the test: MultiTox-Fluor Multiplex Cytotoxicity Assay, tet-inducible APOL1 G1 T-REx-HEK293 cells. Format: cell-based. To be noted: for IC90: HEK293, Multi-Tox Assay, APOL1 variant (G0/G1/G2) of the HEK293 cells not given, read-out: Multi-Tox Assay IC90; for Multi-Tox Assay Max Activity (%) / Emax: APOL1 variant not given, Multi-Tox Assay; for Emax: read-out: Multi-Tox Assay Max Activity (%). Also noted: expressed in transfected cells; host or cells: T-REx HEK293, clone G1 DC3.25 (pAAVS1-Puro-APOL1 G1). A digest of the protocol:
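Over 24 h at 37 °C, compounds (10-point 3-fold series from 10 µM, duplicate) were co-incubated with 50 ng/mL tetracycline inducing APOL1 G1 in T-REx-HEK293 cells. Viability/cytotoxicity measured by MultiTox-Fluor as dead-to-live fluorescence ratio, expressed as percent of control between uninduced and induced wells and fitted.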

A word on the IC90: it is the point of the concentration-response curve where the effect stands at 90%. For the molecule `COc1cccc([C@@H]2C[C@]3(C[C@H](C)N2)OCCc2cc(Cl)sc23)c1O` (racemic) [Compound 166], the IC90 was > 500 nM and the “Multi-Tox Assay Max Activity (%)” value amounted to 96.7%.
Turning to `Cc1ccc(Cn2cc([C@@H]3C[C@]4(C[C@H](C)N3)OCC(F)(F)c3cc(Cl)sc34)nn2)nc1` [Compound 334], the IC90 is > 500 nM and the “Multi-Tox Assay Max Activity (%)” value is on record as 96.0%.
With `C[C@H]1C[C@@]2(C[C@@H](c3cnc(N(C)C)nc3)N1)OCCc1cc(Cl)sc12` (racemic) [Compound 75], the IC90 was < 50 nM and the Emax turned out to be 100%.
For the molecule `C[C@H]1C[C@@]2(C[C@@H](c3cn(CC(O)c4ccccc4)nn3)N1)OC[C@@H](O)c1cc(Cl)sc12` (stereo partly shown) [Compound 281], the IC90 was in the range of 50 to 500 nM.
For the molecule `COc1ccc(Cn2cc([C@@H]3C[C@]4(C[C@H](C)N3)OC[C@@H](O)c3cc(Cl)sc34)nn2)cc1F` [Compound 245], the IC90 fell in the range of 50 to 500 nM.
For `COc1cc(F)cc(Cn2cc([C@@H]3C[C@]4(C[C@H](C)N3)OC[C@@H](O)c3cc(Cl)sc34)nn2)c1` [Compound 293], the IC90 was < 50 nM and the “Multi-Tox Assay Max Activity (%)” value worked out at 100.0%.
On to `C[C@H]1C[C@@]2(C[C@@H](c3ccn(C)n3)N1)OCCc1cc(Cl)sc12` (racemic) [Compound 118], for which the IC90 was in the range of 50 to 500 nM and the “Multi-Tox Assay Max Activity (%)” value is 99.3%.
In the case of `C[C@H]1C[C@@]2(C[C@@H](c3cnn(C4CCOCC4)c3)N1)OCCc1cc(Cl)sc12` (racemic) [Compound 100], the IC90 was < 50 nM and the “Multi-Tox Assay Max Activity (%)” value is reported as 99.3%.
With `C[C@H]1C[C@@]2(C[C@@H](c3cn(CC4(F)CCOCC4)nn3)N1)OCC(F)(F)c1cc(Cl)sc12` [Compound 329], the concentration for an effect of 90% (IC90) is > 500 nM and the “Multi-Tox Assay Max Activity (%)” value worked out at 90.0%.
With `C[C@H]1C[C@@]2(C[C@@H](c3c[nH]nn3)N1)OCCc1cc(Cl)sc12` (racemic) [Compound 72], the 90% effect concentration (IC90) is < 50 nM and the Emax came out at 99.7%.
As for `Cc1nccn1CCCn1cc([C@@H]2C[C@]3(C[C@H](C)N2)OC[C@@H](O)c2cc(Cl)sc23)nn1` [Compound 251], the IC90 fell in the range of 50 to 500 nM.
Consider `CC(C)c1cc2c(s1)C1(C[C@@H](C)N[C@@H](C)C1)OCC2` (single isomer, unassigned) [Compound 200], for which the concentration for an effect of 90% (IC90) is > 500 nM and the Emax worked out at 97%.
Regarding `CCOc1cc([C@@H]2C[C@]3(C[C@H](C)N2)OCCc2cc(Cl)sc23)ccc1O` (racemic) [Compound 102], the IC90 is < 50 nM and the “Multi-Tox Assay Max Activity (%)” value came out at 99.8%.
For the molecule `COC(=O)[C@@H]1C[C@]2(C[C@@H](C)N1)OCCc1cc(Cl)sc12` (stereo in doubt) [Compound 209, methyl (2'S,6'R,7S)-2-chloro-6'-methyl-spiro[4,5-dihydrothieno[2,3-c]pyran-7,4'-piperidine]-2'-carboxylate], the IC90 was > 500 nM and the Emax amounted to 76.7%.
Turning to `C[C@H]1C[C@@]2(C[C@@H](c3cn(Cc4n[nH]c5ccccc45)nn3)N1)OCC(F)(F)c1cc(Cl)sc12` [Compound 349], the IC90 was > 500 nM and the “Multi-Tox Assay Max Activity (%)” value was determined as 91.0%.
Turning to `C[C@H]1C[C@@]2(C[C@@H](c3cccc(=O)[nH]3)N1)OCCc1cc(Cl)sc12` (racemic) [Compound 151], the IC90 is > 500 nM and the “Multi-Tox Assay Max Activity (%)” value amounted to 96.2%.
Take `CCC1CC2(CC(C)N1)OCCc1cc(Cl)sc12` (mixture of isomers) [Compound 215]: the IC90 lay in the range of 50 to 500 nM and the Emax came to 99.3%.
In the same order, the values of `CC(=O)Nc1ccc(C2CC3(CC(C)N2)OCCc2cc(Cl)sc23)cn1` (stereo not shown) [Compound 37] are < 50 nM and 99.7%.
As to `C[C@H]1C[C@@]2(C[C@@H](c3cn(CC4(CO)CC4)nn3)N1)OC[C@@H](O)c1cc(Cl)sc12` [Compound 242], the IC90 lay in the range of 50 to 500 nM and the “Multi-Tox Assay Max Activity (%)” value is reported as 97.0%.
In the case of `C[C@H]1C[C@@]2(C[C@@H](c3c[nH]c(C4CC4)n3)N1)OCCc1cc(Cl)sc12` (racemic) [Compound 130], the IC90 is 50 to 500 nM.
Take `C[C@H]1C[C@@]2(C[C@@H](c3cc4n(n3)CCCO4)N1)OCCc1cc(Cl)sc12` (racemic) [Compound 131]: the IC90 was in the range of 50 to 500 nM and the “Multi-Tox Assay Max Activity (%)” value was determined as 99.3%.
Consider `C[C@H]1C[C@@]2(C[C@@H](c3cn(Cc4cccc(O)c4)nn3)N1)OC[C@@H](O)c1cc(Cl)sc12` [Compound 279], for which the IC90 was in the range of 50 to 500 nM and the “Multi-Tox Assay Max Activity (%)” value was 97.0%.
As for `C[C@H]1C[C@@]2(C[C@@H](c3cn(CC(F)F)nn3)N1)OC[C@@H](O)c1cc(Cl)sc12` [Compound 283], the 90% effect concentration (IC90) lay in the range of 50 to 500 nM and the “Multi-Tox Assay Max Activity (%)” value worked out at 101.0%.
As to `C[C@H]1C[C@@]2(C[C@@H](c3cn(CC(=O)N4CCCCC4)nn3)N1)OC[C@@H](O)c1cc(Cl)sc12` [Compound 239], the 90% effect concentration (IC90) fell in the range of 50 to 500 nM and the “Multi-Tox Assay Max Activity (%)” value was 97.0%.
Consider `C[C@H]1C[C@@]2(C[C@@H](c3cn(Cc4ccc(OC5CCOCC5)cc4)nn3)N1)OC[C@@H](O)c1cc(Cl)sc12` [Compound 266], for which the 90% effect concentration (IC90) is 50 to 500 nM and the “Multi-Tox Assay Max Activity (%)” value is 100.0%.
Regarding `C[C@H]1C[C@@]2(C[C@@H](c3cn(CC4CCS(=O)(=O)C4)nn3)N1)OC[C@@H](O)c1cc(Cl)sc12` (stereo partly shown) [Compound 265], the IC90 lay in the range of 50 to 500 nM.
In the case of `C[C@H]1C[C@@]2(C[C@@H](c3cn(Cc4ccc(C#N)nc4)nn3)N1)OCC(F)(F)c1cc(Cl)sc12` [Compound 352], the IC90 fell in the range of 50 to 500 nM.
As to `C[C@H]1C[C@@]2(C[C@@H](c3cn(C)nn3)N1)OC[C@@H](O)c1cc(C(F)(F)F)sc12` [Compound 181, (2S,4S,4'S,6S)-2-methyl-6-(1-methyl-1H-1,2,3-triazol-4-yl)-2'-(trifluoromethyl)-4',5'-dihydrospiro[piperidine-4, 7'-thieno[2,3-c]pyran]-4'-ol], the IC90 was < 50 nM and the Emax amounted to 99.8%.
`C[C@H]1C[C@@]2(C[C@@H](c3cccnn3)N1)OCCc1cc(Cl)sc12` (racemic) [Compound 92]: the IC90 was < 50 nM and the Emax came to 100%.
Take `C[C@H]1C[C@@]2(C[C@@H](c3cn(CC4(F)CCOCC4)nn3)N1)OC[C@@H](O)c1cc(Cl)sc12` [Compound 289]: the concentration for an effect of 90% (IC90) is > 500 nM and the “Multi-Tox Assay Max Activity (%)” value turned out to be 83.0%.
Consider `COCCn1cc([C@@H]2C[C@]3(C[C@H](C)N2)OCCc2cc(Cl)sc23)cn1` (racemic) [Compound 90], for which the IC90 was < 50 nM and the Emax was found to be 100%.
In the same order, the values of `CC1CC2(CC(C3CCC3)N1)OCCc1cc(Cl)sc12` (mixture of isomers) [Compound 218] are 50 to 500 nM and 99.3%.
Regarding `Cc1ccnn1CCn1cc([C@@H]2C[C@]3(C[C@H](C)N2)OC[C@@H](O)c2cc(Cl)sc23)nn1` [Compound 274], the IC90 fell in the range of 50 to 500 nM and the “Multi-Tox Assay Max Activity (%)” value was found to be 97.0%.
Consider `Cc1cccc([C@@H]2C[C@]3(C[C@H](C)N2)OCCc2cc(Cl)sc23)n1` (racemic) [Compound 126], for which the 90% effect concentration (IC90) lay in the range of 50 to 500 nM and the “Multi-Tox Assay Max Activity (%)” value is 99.4%.
On to `COCC1(Cn2cc([C@@H]3C[C@]4(C[C@H](C)N3)OC[C@@H](O)c3cc(Cl)sc34)nn2)CC1` [Compound 270], for which the IC90 was > 500 nM and the “Multi-Tox Assay Max Activity (%)” value worked out at 93.0%.
